Measurements from patent US10874730B2, “Methods for treating brain cancer using il-13r alpha 2 peptide-based compositions” (University of Pittsburgh—Of the Commonwealth System of …, priority 2004, dated 2020).

What was measured:
EL4-HHD-IL-13Rα2 cells = test: Immunization of HHD mice, spleen cell cytotoxicity (4 hr 51Cr-release); format: in vivo; settings: for specific CTL activity against EL4-HHD-IL-13Rα2 cells: 100 μg peptide s.c. in IFA with HBVcore128-140, FIG. 7; for magnitude of CTL activities in comparison to native IL-13Rα2345-353 against EL4-HHD-IL-13Rα2 cells: p<0.05 at all effector/target ratios
Experimental: (§1) Control animals received IFA containing HBV helper-peptide only. Eleven days after the last immunization, the animals were sacrificed, and 5×10^6 spleen cells (SPCs) were stimulated in vitro with the same peptide that was used for in vivo stimulation (10 μM). On day 6 of culture, the bulk populations were tested for specific cytotoxicity against the EL4-HHD cells expressing IL-13Rα2 or EL4-HHD pulsed with IL-13 Rα2345-353.
(§2) EL4-HHD-IL-13Rα2 and EL4-HHD were labeled with 100 μCi of ^51Cr for 60 min, plated in 96-well V-bottomed plates (3×10^3 cell/well). Labeled EL4-HHD were pulsed with IL-13Rα2345-353 (1 μM) at 37° C. for 2 h. Control target cells were pulsed with no peptides. Stimulated SPCs were then added as effector cells and incubated at 37° C. for 4 h. One hundred μl of supernatant were collected and radioactivity measured in a gamma counter.

human glioma cells SNB19 = test: 4-hr 51Cr-release assay, peptide-induced CTL lines against glioma cells; format: cell-based; settings: for lysis of SNB19 in comparison to the native IL-13Rα2345-353 peptide: each E/T ratio, FIG. 3; for anti-SNB19 glioma cell lytic activities on addition of cold T2 cells pulsed IL-13Rα2345-353: cold target competition, FIG. 4
Experimental: CD8+ cells derived from an HLA-A2+ glioma patient were stimulated with native IL-13Rα2345-353 (●), IL-13Rα2-V9 (∘), IL-13Rα2-A1V9 (Δ), or IL-13Rα2-E1V9 (X). On day 10, the cells were tested for lytic ability against human glioma cells SNB19 (A) and U-251 (B) (both are IL-13Rα+/HLA-A2+) using 4-Hr ^51 Cr-release assay.
The CTL lines induced with each peptide (control (A); Flu (B); IL-13Rα2345-353 (C); IL-13Rα2345-9V (D)) were incubated for 4 h with ^51Cr-labeled human glioma cell lines SNB19 at the indicated E:T ratios for evaluation of specific lytic ability (●). For the cold target inhibition assay, ^51Cr-labeled target SNB19 cells (1×10^3 cells/well) and cold T2 cells (1×10^4 cells/well) pulsed with (Δ) or without (∘) peptide IL-13Rα2345-353 were incubated with the CTLs.
The CTL lines induced with each peptide (control (A); Flu (B); IL-13Rα2345-353 (C); IL-13Rα2345-9V (D)) were incubated for 4 h with ^51Cr-labeled human glioma cell line SNB19 at the indicated E:T ratios for evaluation of specific lytic ability (●). Anti-HLA-A2 antibody (W6/32; 10 μg/ml) was added to block the function of HLA-A2 mediated recognition by the T cells (a).
(§3) The ability of modified peptides, such as IL-13Rα2-V9, to enhance the CTL activity against HLA-A2+ human glioma cells that endogenously expressed and presented IL-13Rα2-derived epitopes was examined. Human glioma cell lines U251 and SNB19 express HLA-A2 and IL-13Rα2, whereas human glioma cell line A172 expresses IL-13Rα2 but not HLA-A2 (Okano et al., 2002).
(§4) The lytic ability of the peptide-induced CTL lines against these glioma cells was examined using 4-hr ^51Cr-release assays.
To determine the specificity of the lytic activity, cold target competition experiments were performed by addition of non-radiolabeled (cold) T2 cells pulsed with IL-13Rα2345-353 peptide in the 4-h ^51Cr-release assay (FIG. 4).
Furthermore, anti-HLA-A2 antibody (W6/32) was used to block the HLA-A2 mediated signaling in the CTL reactivity.

HLA-A2 = molecular target: T1, HLA-A2 (Homo sapiens, UniProt P04439, D140Y/D185E/D98H/E176V/E277Q/G131W/G231S/I119V/I121R/I166T/I218V/L300P/L318F/N151K/N90K/P208A/P217A/Q86G/Q94H/R138H/R169H/T345S); test: HLA-A2 binding: surface expression of HLA-A2 on T2 cells by flow cytometry; settings: 1 nM
T1 construct: expressed in transfected cells; host or cells: T2 cells
Experimental: The binding capability of these modified peptides was assessed using an HLA-A2 transfected T2 cell line. Aliquots of T2 cells were incubated with modified peptides or IL-13Rα2345-353 at 1 nM overnight, and then examined for the surface expression levels of HLA-A2 on T2 cells by flow cytometry. Since stable binding of HLA-A2 with peptide epitopes further stabilizes the surface expression of HLA-A2 (Francini et al., 2002; Alves et al., 2003), quantitative expression levels of HLA-A2, which is indicated by Mean Fluorescence Intensity (MFI) in Table 1, correlate with the binding affinity of the peptide-epitopes that are co-incubated with the T2 cells.

[1] = tested on: T2 cells loaded with the wild type IL-13Rα2345-353; test: 4-hr 51Cr-release assay, peptide-induced CTL lines against peptide-loaded T2 cells; format: cell-based, human; settings: for lysis of T2 target cells pulsed with 100 ng/ml wild type IL-13Rα2345-353 by peptide-stimulated T cells: CD8+ T cells of HLA-A*0201+ glioma patients stimulated with peptide-pulsed DCs, day 10, FIG. 1; for magnitude of CTL reactivity against T2 cells loaded with native IL-13Rα2345-353 compared with native or IL-13Rα2-E1V9: E/T ratio 12.5, P<0.01 vs native at 0.1 and 1 nM, FIG. 1
human glioma cells U-251 = test: 4-hr 51Cr-release assay, peptide-induced CTL lines against glioma cells; format: cell-based; settings: each E/T ratio, FIG. 3
Experimental: CD8+ cells derived from an HLA-A2+ glioma patient were stimulated with native IL-13Rα2345-353 (●), IL-13Rα2-V9 (∘), IL-13Rα2-A1V9 (Δ), or IL-13Rα2-E1V9 (X). On day 10, the cells were tested for lytic ability against human glioma cells SNB19 (A) and U-251 (B) (both are IL-13Rα+/HLA-A2+) using 4-Hr ^51 Cr-release assay. Against SNB19 glioma cells, p<0.05 at all E/T ratios for IL-13Rα2-V9 vs. native IL-13Rα2345-353 as well as IL-13Rα2-A1V9 vs. native IL-13Rα2345-353 by two-tailed Student-t tests. Against U251 glioma cells, p<0.05 at E/T ratio of 10 and 40 for IL-13Rα2-V9 vs. native IL-13Rα2345-353 as well as IL-13Rα2-A1V9 vs. native IL-13Rα2345-353 by two-tailed Student-t tests. […] The data presented represent one of three experiments with different donors with similar results.
as §3, §4

gp100 = test: IFN-γ ELISPOT on patient PBMC, phase I/II trial; format: in vivo, human; settings: both dose levels combined, Wilcoxon test
Excerpt: This study was designed to assess toxicity and the induction of immune and preliminary clinical responses of vaccinations with GAA-loaded αDC1 and administration of poly-ICLC (Hiltonol®, Oncovir, Inc.). The first course of vaccines consisted of 4 ultrasound-guided intranodal (i.n.) administrations of 1 or 3×10^7 αDC1/injections every 2 weeks (FIG. 19) rotating each of inguinal and axillary lymph node clusters to minimize the potential effects of injection-induced trauma in the microenvironment of the lymph nodes by repeating injections in short periods. The first 10 evaluable patients received 1×10^7 αDC1/injection (Dose Level 1), then 9 received 3×10^7 αDC1/injection (Dose Level 2). All patients received intramuscular (i.m.) injections with poly-ICLC (20 μg/kg) twice/week for 8 weeks starting on day 1. […]
Enzyme-linked immunosorbent spot (ELISPOT) assays were performed as described previously (see, e.g., Kirkwood et al, Clin. Cancer Res., 15:1443-1451, 2009) with slight modifications. Briefly, batched PBMC samples were evaluated simultaneously following in vitro stimulation with autologous, irradiated PBMC loaded with wild-type IL-13Rα345-353, EphA2883-891, GP100209-217 and YKL-40202-211 for a week. […]

[2] = Salazar et al., Neurosurgery, 38: 1096-1103, 1996; cited from earlier work
[3] = tested on: preclinical brain tumor models; settings: Zhu et al., J. Transl. Med., 5: 10, 2007; cited from earlier work
[4] = Toxicity assessment (NCI Common Toxicity Criteria version 3.0), phase I/II trial; format: in vivo, human; settings: Patient 6, following the 154th injection of poly-ICLC
Excerpt: This study was designed to assess toxicity and the induction of immune and preliminary clinical responses of vaccinations with GAA-loaded αDC1 and administration of poly-ICLC (Hiltonol®, Oncovir, Inc.). The first course of vaccines consisted of 4 ultrasound-guided intranodal (i.n.) administrations of 1 or 3×10^7 αDC1/injections every 2 weeks (FIG. 19) rotating each of inguinal and axillary lymph node clusters to minimize the potential effects of injection-induced trauma in the microenvironment of the lymph nodes by repeating injections in short periods. The first 10 evaluable patients received 1×10^7 αDC1/injection (Dose Level 1), then 9 received 3×10^7 αDC1/injection (Dose Level 2). All patients received intramuscular (i.m.) injections with poly-ICLC (20 μg/kg) twice/week for 8 weeks starting on day 1. […] Starting at Week 13, these patients were treated with the same dose of additional vaccinations every 4 weeks to a maximum of 5 vaccine injections and i.m. poly-ICLC starting on the day of the first additional vaccine and twice/week (1st booster phase).
The trial was monitored continuously for treatment-related AE using National Cancer Institute Common Toxicity Criteria version 3.0. […]

[5] = solution 2 mg per cc, room temperature; cited from earlier work
[6] = tested on: human glioma cells expressing HLA-A2 and EphA2 protein; test: 4-hr 51Cr-release assay, EphA2883-891-stimulated CD8+ T cells against glioma cells; format: cell-based; settings: stimulation with peptide-loaded DCs for 10 days, FIG. 9
Experimental: CD8+ T cells from an HLA-A2+ glioma patients were stimulated with DCs loaded with EphA2883-891 for 10 days. These T cells were then tested for their lytic activity against human glioma cells SNB19 (HLA-A2+, EphA2+) (▴), U251 (HLA-A2+, EphA2+) (▪) and A172 (HLA-A2−, EphA2+) (▾) by 4-hr ^51Cr-release assay.
EphA2 is an attractive tumor-associated antigen and a target for tumor-vaccines, as 5 HLA-A2 and 3 DR4 T cell epitopes have been previously identified (Tatsumi et al., 2003).

[7] = tested on: EL4-HHD cells pulsed with the native IL-13Rα2345-353; test: Immunization of HHD mice, spleen cell cytotoxicity (4 hr 51Cr-release); format: in vivo; settings: 100 μg peptide s.c. in IFA with HBVcore128-140; difference not statistically significant; FIG. 6
Experimental: as §1, §2

Substance	specific CTL activity against EL4-HHD-IL-13Rα2 cells (EL4-HHD-IL-13Rα2 cells)	magnitude of CTL activities in comparison to native IL-13Rα2345-353 against EL4-HHD-IL-13Rα2 cells (EL4-HHD-IL-13Rα2 cells)	lysis of SNB19 in comparison to the native IL-13Rα2345-353 peptide (human glioma cells SNB19)	binding affinity to HLA-A2 compared with the native IL-13Rα2345-353 (HLA-A2)	lysis of T2 target cells pulsed with 100 ng/ml wild type IL-13Rα2345-353 by peptide-stimulated T cells [1]	magnitude of CTL reactivity against T2 cells loaded with native IL-13Rα2345-353 compared with native or IL-13Rα2-E1V9 [1]	lysis of U-251 in comparison to the native IL-13Rα2345-353 peptide (human glioma cells U-251)	anti-SNB19 glioma cell lytic activities on addition of cold T2 cells pulsed IL-13Rα2345-353 (human glioma cells SNB19)	also measured
ALPFGFILV (Amino acid residues 345-353 of Interleukin-13 Receptor alpha with mutation of W to A at position 345 and I to V at position 353) [A1V9]	induced a specific CTL activity	higher magnitude	higher levels of lysis	higher	efficiently lysed	higher magnitude	higher levels of lysis	–	–
IMDQVPFSV (Amino acid residues 209-217 of GP100 with mutation of T to M at position 210) [gp100 epitope]	–	–	–	–	–	–	–	–	magnitude of IFN-γ ELISPOT response among the GAA peptides tested (gp100): highest magnitude of response
Polyinosinic-Polycytidylic acid stabilized with polylysine and carboxymethylcellulose [poly-ICLC]	–	–	–	–	–	–	–	–	safety [2]: safe; effect on vaccine effects [3]: enhance the vaccine effects; adverse event during the 2nd booster phase considered to be DLT [4]: grade 2 systemic urticaria; stability [5]: stable at room temperature for several days
TLADFDPRV (Amino acid residues 883-891 of EphA2) [EphA2883-891]	–	–	–	–	–	–	–	–	anti-glioma CTL reactivity of CD8+ cells from HLA-A2+ glioma patients [6]: anti-glioma CTL reactivity has been induced
WLPFGFILI (Amino acid residues 345-353 of Interleukin-13 Receptor alpha) [Native, reference compound]	induced a specific CTL activity	–	–	–	efficiently lysed	–	–	almost completely inhibited	–
WLPFGFILV (Amino acid residues 345-353 of Interleukin-13 Receptor alpha 2 with mutation of I to V at position 353) [V9, I was replaced with V at P9]	induced a specific CTL activity	higher magnitude	higher levels of lysis	higher	efficiently lysed	higher magnitude	higher levels of lysis	almost completely inhibited	CTL reactivity against EL4-HHD cells pulsed with the native peptide compared with other peptides examined [7]: trend toward higher levels of CTL reactivity; CTL activities against T2 cells loaded with IL-13Rα2345-353 compared with the wild type-induced CTL line ([1]; 1, 10 and 100 nM peptide, E/T ratio=50, FIG. 2): higher CTL activities; antigen-specific CTL response in comparison to the wild type IL-13Rα2345-353 ([1]; E/T ratio of 50, 25 and 12.5): significantly higher level
